The values that follow come from ChEMBL document CHEMBL2417399, “Discovery of highly potent and selective D4 ligands by interactive SAR study” (Bioorg Med Chem Lett, 2013).

Test [1] deals with D(1B) dopamine receptor (Homo sapiens, UniProt P21918). The experiment in a line: Binding affinity to human dopamine D5 receptor by radioligand binding assay.
Test [2] has as its target T1, D(4) dopamine receptor (Homo sapiens, UniProt P21917).
T1 sequence (P21917 whole entry): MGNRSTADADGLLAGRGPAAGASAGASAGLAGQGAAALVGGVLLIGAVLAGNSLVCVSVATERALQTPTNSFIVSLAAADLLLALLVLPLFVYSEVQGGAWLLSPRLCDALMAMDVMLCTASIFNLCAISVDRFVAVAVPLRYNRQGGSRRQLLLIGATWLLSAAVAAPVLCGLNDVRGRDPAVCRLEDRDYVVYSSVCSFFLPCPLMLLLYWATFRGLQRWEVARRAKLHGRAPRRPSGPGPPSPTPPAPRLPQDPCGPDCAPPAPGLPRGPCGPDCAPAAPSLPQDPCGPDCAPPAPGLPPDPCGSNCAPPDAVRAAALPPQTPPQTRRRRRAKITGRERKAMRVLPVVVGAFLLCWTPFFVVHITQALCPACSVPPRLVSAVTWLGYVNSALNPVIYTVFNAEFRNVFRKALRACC
Nature of the test: Binding affinity to human dopamine D4 receptor by radioligand binding assay.

Test [3] deals with D(3) dopamine receptor (Homo sapiens, UniProt P35462). Nature of the test: Binding affinity to human dopamine D3 receptor by radioligand binding assay.
Sequence of D(3) dopamine receptor (P35462 whole entry): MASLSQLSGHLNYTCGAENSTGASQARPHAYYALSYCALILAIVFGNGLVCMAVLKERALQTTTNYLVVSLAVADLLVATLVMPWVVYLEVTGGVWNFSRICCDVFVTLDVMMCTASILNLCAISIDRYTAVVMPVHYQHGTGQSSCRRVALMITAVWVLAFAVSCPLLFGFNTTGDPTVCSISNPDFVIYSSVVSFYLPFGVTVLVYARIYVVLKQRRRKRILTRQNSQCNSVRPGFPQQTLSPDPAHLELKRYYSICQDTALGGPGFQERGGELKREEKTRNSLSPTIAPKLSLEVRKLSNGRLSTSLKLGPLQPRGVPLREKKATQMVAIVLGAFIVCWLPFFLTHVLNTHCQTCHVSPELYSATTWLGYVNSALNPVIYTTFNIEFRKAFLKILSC
For test [4], the target named is D(1A) dopamine receptor (Homo sapiens, UniProt P21728). The experiment in a line: Displacement of [3H]SCH23390 from human dopamine D1 receptor.
Sequence of D(1A) dopamine receptor (P21728 whole entry): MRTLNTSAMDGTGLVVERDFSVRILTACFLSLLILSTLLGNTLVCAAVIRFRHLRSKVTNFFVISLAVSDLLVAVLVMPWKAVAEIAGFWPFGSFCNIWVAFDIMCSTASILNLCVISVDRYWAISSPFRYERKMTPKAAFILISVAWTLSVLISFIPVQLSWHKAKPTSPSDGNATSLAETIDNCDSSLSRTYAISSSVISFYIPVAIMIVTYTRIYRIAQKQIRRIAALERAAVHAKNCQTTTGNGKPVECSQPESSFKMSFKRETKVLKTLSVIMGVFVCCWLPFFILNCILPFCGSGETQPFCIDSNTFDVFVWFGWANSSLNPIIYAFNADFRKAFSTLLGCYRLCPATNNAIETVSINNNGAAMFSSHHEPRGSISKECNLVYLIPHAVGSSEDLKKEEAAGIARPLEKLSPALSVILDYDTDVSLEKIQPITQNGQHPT
Test [5] has as its target D(2) dopamine receptor (Homo sapiens, UniProt P14416). The experiment in a line: Displacement of [3H]spiperone from human dopamine D2 receptor.
Test [6] is filed under the species Homo sapiens. The experiment in a line: Selectivity ratio of Ki for human dopamine D2 receptor to Ki for human dopamine D4 receptor.

Sequence of D(1B) dopamine receptor (P21918 whole entry): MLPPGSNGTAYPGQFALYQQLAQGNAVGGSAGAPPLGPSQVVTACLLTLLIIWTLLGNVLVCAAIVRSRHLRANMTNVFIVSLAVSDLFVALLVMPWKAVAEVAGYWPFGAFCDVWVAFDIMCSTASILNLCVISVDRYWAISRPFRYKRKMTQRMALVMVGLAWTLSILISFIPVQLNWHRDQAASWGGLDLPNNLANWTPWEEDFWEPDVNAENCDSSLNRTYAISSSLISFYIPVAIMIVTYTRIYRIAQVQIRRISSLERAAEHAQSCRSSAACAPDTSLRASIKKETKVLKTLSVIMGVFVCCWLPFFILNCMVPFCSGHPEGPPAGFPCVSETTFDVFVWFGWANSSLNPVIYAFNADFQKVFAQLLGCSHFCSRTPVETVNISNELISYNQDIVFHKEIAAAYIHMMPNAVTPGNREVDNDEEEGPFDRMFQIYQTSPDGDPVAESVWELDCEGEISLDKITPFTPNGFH
Sequence of D(2) dopamine receptor (P14416 whole entry): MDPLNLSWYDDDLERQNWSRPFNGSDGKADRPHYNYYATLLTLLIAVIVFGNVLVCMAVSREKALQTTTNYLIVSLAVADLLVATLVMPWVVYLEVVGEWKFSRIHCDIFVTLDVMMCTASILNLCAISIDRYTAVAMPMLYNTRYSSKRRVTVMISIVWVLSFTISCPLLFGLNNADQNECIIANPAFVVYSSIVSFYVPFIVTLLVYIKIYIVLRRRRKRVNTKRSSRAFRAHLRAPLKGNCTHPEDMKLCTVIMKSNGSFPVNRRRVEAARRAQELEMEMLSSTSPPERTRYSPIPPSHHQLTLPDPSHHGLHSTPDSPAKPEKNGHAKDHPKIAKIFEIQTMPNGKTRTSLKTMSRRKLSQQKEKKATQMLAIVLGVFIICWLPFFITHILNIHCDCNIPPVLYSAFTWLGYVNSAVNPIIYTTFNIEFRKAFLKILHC

Regarding `CCOc1ccccc1N1CCN(Cc2cccnc2)CC1`, the Ki in test [1] is over 10000 nM; in test [2] it was 0.7 nM; in test [3] it was 42 nM; in test [4], over 10000 nM; in test [5], 255 nM.
`Clc1ccc(N2CCN(Cc3cc4ccccn4n3)CC2)cc1`: the Ki in test [2] turned out to be 3.1 nM; in test [3], 5000 nM; in test [5], 3200 nM.
With `CCOc1ccccc1N1CCN(Cc2cccc3ccccc23)CC1`, the inhibition constant (Ki) is over 10000 nM in test [1]; 2 nM in test [2]; 59 nM in test [3]; over 10000 nM in test [4]; 264 nM in test [5].
With `CCOc1ccccc1N1CCN(Cc2cccs2)CC1`, in test [6], the Ratio Ki was found to be 14. Further, the Ki is over 10000 nM in test [1]; 3.9 nM in test [2]; 112 nM in test [3]; over 10000 nM in test [4]; 162 nM in test [5].
`CCOc1ccccc1N1CCN(Cc2c[nH]c3ccccc23)CC1`: the inhibition constant Ki is over 10000 nM in test [1]; 0.03 nM in test [2]; 103 nM in test [3]; over 10000 nM in test [4]; 473 nM in test [5].
In the case of `CCOc1ccccc1N1CCN(Cc2csc3ccccc23)CC1`, the inhibition constant Ki in test [1] is over 10000 nM; in test [2], 4.5 nM; in test [3], 45.1 nM; in test [4] it was over 10000 nM; in test [5], 219 nM.
On to `Clc1cccc(N2CCN(Cc3csc4ccccc34)CC2)c1Cl`, for which the Ki is over 10000 nM in test [1]; 22.5 nM in test [2]; 52.5 nM in test [3]; over 10000 nM in test [4]; 383 nM in test [5].
Regarding `Clc1cccc(N2CCN(Cc3cccnc3)CC2)c1Cl`, the Ki is over 10000 nM in test [1]; 4.4 nM in test [2]; 41 nM in test [3]; over 10000 nM in test [4]; 327 nM in test [5].
Consider `Clc1cccc(N2CCN(Cc3c[nH]c4ccccc34)CC2)c1Cl`, for which the Ki in test [1] is over 10000 nM; in test [2] it was 6.2 nM; in test [3] it was 123 nM; in test [4] it was over 10000 nM.
With `Clc1cccc(N2CCN(Cc3cccc4ccccc34)CC2)c1Cl`, the Ki is over 10000 nM in test [1]; 31 nM in test [2]; 92 nM in test [3]; over 10000 nM in test [4]; 351 nM in test [5].
